Measurements published in article PMC10065799, “High-throughput profiling of sequence recognition by tyrosine kinases and SH2 domains using bacterial peptide display” (eLife, 2023).
Where two headings read alike, the source gives them in different places.

What was measured:
Assay in all cases: pTyr-Var library bacterial peptide display kinase screen (enrichment scores)
c-Src kinase domain = c-Src kinase domain (Homo sapiens, UniProt P12931); format: biochemical;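 also: log2 fold change in enrichment of variant over reference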
Fer kinase domain = format: biochemical, mouse; conditions: sheet "Fer"
EPHB2 kinase domain = format: biochemical, human; conditions: sheet EPHB2
EPHB1 kinase domain = format: biochemical, human; conditions: for Screen (variant relative to reference peptide, measured in the pTyr-Var library screen): sheet "EPHB1", variant seq vs reference seq, bacterial peptide display enrichment; for Screen: sheet EPHB1, effect of the variant peptide relative to its reference peptide in the pTyr-Var library screen (enrichment scores)
c-Abl kinase domain = target: T1, c-Abl kinase domain (Mus musculus, UniProt P00520); format: biochemical; conditions: sheet "Abl"; effect of variant peptide relative to its reference peptide in pTyr-Var library screen (enrichment);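 also: log2 fold change in enrichment of variant over reference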
T1 sequence (P00520 242-493 limits assumed): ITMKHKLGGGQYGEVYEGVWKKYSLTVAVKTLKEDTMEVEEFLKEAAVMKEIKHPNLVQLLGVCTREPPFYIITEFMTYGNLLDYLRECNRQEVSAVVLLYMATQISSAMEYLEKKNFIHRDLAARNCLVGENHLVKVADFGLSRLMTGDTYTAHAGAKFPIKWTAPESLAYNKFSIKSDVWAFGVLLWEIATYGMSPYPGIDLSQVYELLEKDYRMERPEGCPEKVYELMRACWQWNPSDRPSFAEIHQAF

[1] = sheet "Src", variant peptide versus its reference peptide in the pTyr-Var library screen
[2] = variant peptide relative to its reference peptide, pTyr-Var library screen enrichment
[3] = effect of the variant relative to its reference peptide in the pTyr-Var library screen
[4] = sheet "Src", effect of the variant peptide relative to its reference peptide in the pTyr-Var library screen
[5] = value of the variant peptide against its reference peptide in the pTyr-Var library screen with Fer
[6] = effect of variant peptide relative to its reference peptide in the pTyr-Var library screen (enrichment scores)

Sequence	Screen (c-Src kinase domain; [1])	Screen (Fer kinase domain; [5])	Screen (EPHB2 kinase domain; [6])	Screen (EPHB1 kinase domain)	further results
QPDLLYDHIQP [TRRAP_Y862_F860L]	0.81				Screen (Fer kinase domain; [2]): 1.063; Screen (EPHB2 kinase domain; [3]): 2.501; Screen (variant relative to reference peptide, measured in the pTyr-Var library screen) (EPHB1 kinase domain): 1.53
KSSDVYVSFDC [SORL1_Y136_Y141C_YF]	-0.3615				Screen (Fer kinase domain; [2]): -2.678; Screen (variant relative to reference peptide, measured in the pTyr-Var library screen) (EPHB1 kinase domain): -0.2812
QMVGMYAFSFM [AVPR2_Y124_S126F_YF]		2.024	0.9949	0.9458	Screen (c-Src kinase domain; [4]): -0.3615
NTADFYDLFGG [PTPN11_Y63_G60A_YF]	-0.001161				Screen (Fer kinase domain; [2]): -0.1929
QVQQIYSDSDL [MIB1_Y376_R371Q]		0.8951	1.36		Screen (c-Src kinase domain; [4]): 0.02886
FGMQLYQKFMH [GRB14_Y347_N349K_YF]		-1.436	-1.587	-1.356	Screen (c-Src kinase domain; [4]): -0.6929
QNTGNYFDLFG [PTPN11_Y62_D61N_YF]	-1.162		0.1444	0.2097	
TSKLSYLDPRI [TOP1_Y723_N722S]					Screen (EPHB2 kinase domain; [3]): -1.966; Screen (variant relative to reference peptide, measured in the pTyr-Var library screen) (EPHB1 kinase domain): -2.938
AVIADYMFWLG [SPATA16_Y290_M286V]			-0.2895		Screen (Fer kinase domain; [2]): -0.04255; Screen (variant relative to reference peptide, measured in the pTyr-Var library screen) (EPHB1 kinase domain): -0.3108
PIAPVYAPSMV [ACAT1_Y331_A333P]		1.079	0.3731	-0.08214	Screen (c-Src kinase domain): -0.325
KFEDVYVRICL [B3GALNT1_Y269_G271R]		-2.092			Screen (c-Src kinase domain; [4]): -2.417
LPPREYVVVPS [CAPN1_Y494_G492R]		0.6785	-0.3372	-0.6929	
QADVTYVNTQL [MERTK_Y872_I871T]		-3.553		-1.632	
EPSLVYMVTKI [CPS1_Y768_D767V]		1.098			
DTFDPYLDIAL [USP36_Y268_V271I_YF]					Screen (Fer kinase domain; [2]): -0.4655
PESIMYWKFTT [NTRK3_Y744_R745W]	2.713	1.613			
RCQDLYSARDL [SART1_Y249_R245C]	2.461			1.546	Screen (Fer kinase domain; [2]): 2.483
ALTDNYMFVVI [HAGH_Y61_L64V_YF]		0.9324	0.5365	0.4544	

Sequence	Screen (c-Src kinase domain; [1])	Screen (Fer kinase domain; [5])	Screen (EPHB2 kinase domain; [6])	Screen (EPHB1 kinase domain)	further results
IQRSLYDCPAS [PDGFRA_Y762_R764C]		2.142	2.388	2.32	
ADARMYGVLPR [PLP1_Y207_W212R]	-3.205		-2.437		
LGSWTYPKTVS [ROS1_Y144_T145P]				-2.133	
VNNLVYENING [FRS2_Y306_K303N]		1.713	2.712	1.417	Screen (c-Src kinase domain; [4]): 1.603
LAIERYVVVSK [RHO_Y136_C140S]			0.1273		
FEELVYETVRV [FSHB_Y76_K72E]		-0.5222	-0.7932	-1.125	Screen (c-Src kinase domain; [4]): -0.8103
NTVDFYDLFGG [PTPN11_Y63_G60V_YF]	-0.792				Screen (Fer kinase domain; [2]): -0.946
DISEPYEVFRI [IRF8_Y107_K108E_YF]		4.437			Screen (c-Src kinase domain; [4]): 2.852
AEFGLYAAMVR [VSX2_Y222_G223A_YF]	-0.7281				Screen (c-Abl kinase domain): 2.617; Screen (EPHB2 kinase domain; [3]): 1.609; Screen (variant relative to reference peptide, measured in the pTyr-Var library screen) (EPHB1 kinase domain): 1.956
RLEPVYFVAPA [LAMC2_Y250_D247E]			0.4501	0.4539	Screen (c-Src kinase domain; [4]): -0.2779
RQQQDYWLMDV [ANPEP_Y600_I603M]		-1.652	-0.2938	-0.3	
VFDHIYTTQSD [RET_Y928_L923V]	-1.024		-2.18		Screen (Fer kinase domain; [2]): -1.691
QGFDTYFGFLL [ARSB_Y165_R160Q_YF]		0.9524	0.8549	0.1277	Screen (c-Src kinase domain; [4]): 0.07217
QNTADYFDLFG [PTPN11_Y62_G60A_YF]	-1.145		-0.5539	-0.5569	
LAIEWYVVVCK [RHO_Y136_R135W]				0.5887	
WASGIYFVPKG [APBB1IP_Y340_R335W_YF]		2.226	2.1	1.089	Screen (c-Src kinase domain; [4]): 0.1676
DLDFTYIFPNI [PTEN_Y27_L25F_YF]	-0.8557			-1.115	
LIGWRYDDPEV [HSPA9_Y128_R126W]			-0.9592		
